Laboratory results from patent publication US20240116985A1, “STAPLED PEPTIDES AND METHODS THEREOF” (priority 2020, published 2024).
Where two headings read alike, the source gives them in different places.

What was measured:
[1] = biological target: T1, beta-catenin/TCF4 engagement (Homo sapiens, UniProt P35222); test: Nano-BRET target engagement assay (B-cat-Halo & TCF4-Luc in HEK293 cells); type: cell-based; details: read-out: NanoBRET Abs IC50
T1 construct: expressed in transfected cells; host or cells: HEK293
T1 sequence (P35222 1-781): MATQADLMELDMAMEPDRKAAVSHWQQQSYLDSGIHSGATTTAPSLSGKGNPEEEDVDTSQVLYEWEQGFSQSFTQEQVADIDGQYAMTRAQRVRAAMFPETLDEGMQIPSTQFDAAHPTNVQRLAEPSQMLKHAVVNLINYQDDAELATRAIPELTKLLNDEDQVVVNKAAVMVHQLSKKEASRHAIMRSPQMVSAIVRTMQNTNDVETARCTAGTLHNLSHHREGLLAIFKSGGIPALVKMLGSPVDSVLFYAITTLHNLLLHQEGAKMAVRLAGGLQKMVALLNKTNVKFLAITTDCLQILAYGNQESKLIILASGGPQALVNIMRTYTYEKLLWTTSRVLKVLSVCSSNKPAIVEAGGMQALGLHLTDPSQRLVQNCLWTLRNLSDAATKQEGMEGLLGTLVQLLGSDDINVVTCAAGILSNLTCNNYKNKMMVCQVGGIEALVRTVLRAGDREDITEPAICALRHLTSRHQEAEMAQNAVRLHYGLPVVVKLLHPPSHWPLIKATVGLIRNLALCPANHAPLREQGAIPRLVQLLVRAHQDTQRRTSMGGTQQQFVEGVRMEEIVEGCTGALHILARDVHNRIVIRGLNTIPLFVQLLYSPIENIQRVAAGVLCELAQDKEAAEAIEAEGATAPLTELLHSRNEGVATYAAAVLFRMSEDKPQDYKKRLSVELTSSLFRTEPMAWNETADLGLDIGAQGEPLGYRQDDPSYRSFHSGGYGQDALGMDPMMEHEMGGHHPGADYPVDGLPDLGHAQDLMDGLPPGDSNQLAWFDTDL

[2] = biological target: T2, full-length beta-Catenin (Uniprot ID P35222) (Homo sapiens, UniProt P35222); test: Fluorescence polarization IC50 (beta-catenin / 5FAM-TCF4 10-53 competition); type: binding; details: fluorescence polarization; read-out: beta-Catenin FP IC50
T2 construct: 10 nM full-length beta-Catenin (Uniprot ID P35222)
T2 sequence (P35222 1-781): T1 sequence (P35222 1-781)

Which IC50 [1] does the source give for CC(=O)N1CCC[C@]12CC=CCCCC1(CCCC=CCCCOC(=O)N3CC[C@@](C(=O)N[C@@H](Cc4ccccc4Cl)C(=O)N[C@@H](Cc4csc5ccccc45)C(=O)N[C@@H](CO)C(N)=O)(C3)NC(=O)[C@H](CC(C)C)NC(=O)[C@H](Cc3ccccc3)NC(=O)[C@H](C)NC(=O)[C@H](C)NC(=O)[C@H](Cc3cccc(C(=O)O)c3)NC(=O)[C@H](CC(=O)O)NC1=O)NC(=O)[C@H](CC(C)(C)C)NC(=O)[C@H](CC(N)=O)NC2=O (stereo partly drawn) [I-1853, Ac-PL3-Asn-Npg-B5-Asp-3COOHF-Ala-Ala-Phe-Leu-PyrS2-2C1F-BztA-Ser-NH2] here?
The IC50 was 16300 nM.

What about the IC50 [2] of the same molecule?
The IC50 was 114 nM.

With CC(=O)N1CCC[C@]12CC=CCCCC1(CCCC=CCCCOC(=O)N3CC[C@@](C(=O)N[C@@H](Cc4ccsc4)C(=O)N[C@@H](Cc4csc5ccccc45)C(=O)N[C@@H](CC(C)C)C(N)=O)(C3)NC(=O)[C@H](CC(C)C)NC(=O)[C@H](Cc3ccccc3)NC(=O)[C@H](C)NC(=O)[C@H](C)NC(=O)[C@H](CN(CC(=O)O)CC(F)(F)F)NC(=O)[C@H](CC(=O)O)NC1=O)NC(=O)[C@H](CC(C)(C)C)NC(=O)[C@H](CC(=O)O)NC2=O (stereo partly drawn) [I-1748, Ac-PL3-Asp-Npg-B5-Asp-TfeGA-Ala-Ala-Phe-Leu-PyrS2-3Thi-BztA-Leu-NH2] as the molecule, how does the IC50 ([1]; absolute IC50) read?
The IC50 was 20200 nM.

What about the IC50 [2] of the same molecule?
Its IC50 is 141 nM.

CC(=O)N1CCC[C@]12CC=CCCCC1(CCCC=CCCCOC(=O)N3CC[C@@](C(=O)N[C@@H](Cc4ccccc4Cl)C(=O)N[C@@H](Cc4csc5ccccc45)C(=O)N[C@@H](CCC(N)=O)C(N)=O)(C3)NC(=O)[C@H](CC(N)=O)NC(=O)[C@H](Cc3ccccc3)NC(=O)[C@H](C)NC(=O)[C@H](C)NC(=O)[C@H](CNCCC(F)(F)F)NC(=O)[C@H](CC(=O)O)NC1=O)NC(=O)[C@H](CC(C)(C)C)NC(=O)[C@H](CC(=O)O)NC2=O (stereo partly drawn) [I-1457, Ac-PL3-Asp-Npg-B5-Asp-[Tfp]Dap-Ala-Ala-Phe-Asn-PyrS2-2C1F-BztA-Gln-NH2] was tested. Which IC50 ([1]; absolute IC50) did it give?
The IC50 was greater than 20000 nM.

What about the IC50 [2] of the same molecule?
Its IC50 is 43 nM.

CC(=O)N1CCC[C@]12CC=CCCCC1(CCCC=CCCCOC(=O)N3CC[C@@](C(=O)N[C@@H](Cc4ccsc4)C(=O)N[C@@H](Cc4csc5ccccc45)C(=O)N[C@@H](CCC(N)=O)C(N)=O)(C3)NC(=O)[C@H](CC(N)=O)NC(=O)[C@H](Cc3ccccc3)NC(=O)[C@H](C)NC(=O)[C@H](C)NC(=O)[C@H](CN(CCCC(F)(F)F)CC(=O)O)NC(=O)[C@H](CC(=O)O)NC1=O)NC(=O)[C@H](CC(C)(C)C)NC(=O)[C@H](CC(=O)O)NC2=O (stereo partly drawn) [I-1634, Ac-PL3-Asp-Npg-B5-Asp-[Tfb]GA-Ala-Ala-Phe-Asn-PyrS2-3Thi-BztA-Gln-NH2] was tested. Which IC50 ([1]; absolute IC50) did it give?
The IC50 was 16500 nM.

What about the IC50 [2] of the same molecule?
Its IC50 is 9 nM.

Which results are given for CC(=O)N1CCC[C@]12CC=CCCCC1(CCCC=CCCCOC(=O)N3CC[C@@](C(=O)N[C@@H](Cc4ccsc4)C(=O)N[C@@H](Cc4csc5ccccc45)C(=O)N[C@@H](CC(C)C)C(N)=O)(C3)NC(=O)[C@H](CC(C)C)NC(=O)[C@H](Cc3ccccc3)NC(=O)[C@H](C)NC(=O)[C@H](CCCCNC(C)C)NC(=O)[C@H](CN(CC(=O)O)CC(F)(F)F)NC(=O)[C@H](CC(=O)O)NC1=O)NC(=O)[C@H](CC(C)(C)C)NC(=O)[C@H](CC(=O)O)NC2=O (stereo partly drawn) [I-1759, Ac-PL3-Asp-Npg-B5-Asp-TfeGA-iPrLys-Ala-Phe-Leu-PyrS2-3Thi-BztA-Leu-NH2]?
IC50 ([1]; absolute IC50): > 20000 nM; IC50 [2]: 57 nM

For CC(=O)N1CCC[C@]12CC=CCCCC1(CCCC=CCCCOC(=O)N3CC[C@@](C(=O)N[C@@H](Cc4ccccc4C(F)(F)F)C(=O)N[C@H](C(=O)N[C@@H](CCC(N)=O)C(N)=O)[C@H](C)c4ccc5ccccc5c4)(C3)NC(=O)[C@H](CC(C)C)NC(=O)[C@H](Cc3ccccc3)NC(=O)[C@H](C)NC(=O)[C@H](C)NC(=O)[C@H](Cc3cccc(C(=O)O)c3)NC(=O)[C@H](CC(=O)O)NC1=O)NC(=O)[C@H](CC(C)(C)C)NC(=O)[C@H](CC(=O)O)NC2=O (stereo partly drawn) [I-2462, Ac-PL3-Asp-Npg-B5-Asp-3COOHF-Ala-Ala-Phe-Leu-PyrS2-2F3MeF-RbMe2NapA-Gln-NH2], which IC50 ([1]; absolute IC50) is on record?
Its IC50 is 4700 nM.

And the IC50 [2]?
The IC50 was 40 nM.

Which results are given for CC(=O)N1CCC[C@]12CCCCCCC1(CCCCCCOC(=O)N3CC[C@@](C(=O)N[C@@H](Cc4ccsc4)C(=O)N[C@@H](Cc4csc5ccccc45)C(=O)N[C@@H](CCC(N)=O)C(N)=O)(C3)NC(=O)[C@H](CC(C)C)NC(=O)[C@H](Cc3ccccc3)NC(=O)[C@H](C)NC(=O)[C@H](C)NC(=O)[C@H](CC(=O)O)NC(=O)[C@H](CC(=O)O)NC1=O)NC(=O)[C@H](CC(C)(C)C)NC(=O)[C@H](CC(=O)O)NC2=O (stereo partly drawn) [I-1824, Ac-PL3-Asp-Npg-B5-Asp-Asp-Ala-Ala-Phe-Leu-PyrS-3Thi-BztA-Gln-NH2]?
IC50 ([1]; absolute IC50): > 20000 nM; IC50 [2]: 101 nM

CCCCCCSSCCOC(=O)C[C@@H]1NC(=O)[C@H](CC(=O)O)NC(=O)C2(CCCC=CCCCOC(=O)N3CC[C@@](C(=O)N[C@@H](Cc4ccsc4)C(=O)N[C@@H](Cc4csc5ccccc45)C(=O)N[C@@H](CCC(N)=O)C(N)=O)(C3)NC(=O)[C@H](CC(C)C)NC(=O)[C@H](Cc3ccccc3)NC(=O)[C@H](C)NC(=O)[C@H](C)NC1=O)CCCC=CC[C@]1(CCCN1C(C)=O)C(=O)N[C@@H](CC(=O)O)C(=O)N[C@@H](CC(C)(C)C)C(=O)N2 (stereo partly drawn) [I-1962, Ac-PL3-Asp-Npg-B5-Asp-[EtSSHex]AspE-Ala-Ala-Phe-Leu-PyrS2-3Thi-BztA-Gln-NH2] was tested. Which IC50 [1] did it give?
The IC50 was greater than 20000 nM.

What about the IC50 [2] of the same molecule?
Its IC50 is 1600 nM.

Which IC50 ([1]; absolute IC50) does the source give for CC(=O)N1CCC[C@]12CC=CCCCC1(CCCC=CCCCOC(=O)N3CC[C@@](C(=O)N[C@@H](Cc4ccsc4)C(=O)N[C@@H](Cc4csc5ccccc45)C(=O)N[C@@H](C)C(N)=O)(C3)NC(=O)[C@H](Cc3ccccc3)NC(=O)[C@H](Cc3ccccc3)NC(=O)[C@H](C)NC(=O)[C@H](C)NC(=O)[C@H](Cc3cccc(C(=O)O)c3)NC(=O)[C@H](CC(=O)O)NC1=O)NC(=O)[C@H](CC(C)(C)C)NC(=O)[C@H](CC(=O)O)NC2=O (stereo partly drawn) [I-2259, Ac-PL3-Asp-Npg-B5-Asp-3COOHF-Ala-Ala-Phe-Phe-PyrS2-3Thi-BztA-Ala-NH2] here?
The IC50 was 4300 nM.

What about the IC50 [2] of the same molecule?
Its IC50 is 30 nM.

How did the IC50 ([1]; absolute IC50) turn out when CC(=O)N1CCC[C@]12CC=CCCCC1(CCCC=CCCCOC(=O)N3CC[C@@](C(=O)N[C@@H](Cc4ccsc4)C(=O)N[C@@H](Cc4csc5ccccc45)C(=O)N[C@@H](CCCCN)C(N)=O)(C3)NC(=O)[C@H](CC(N)=O)NC(=O)[C@H](Cc3ccccc3)NC(=O)[C@H](C)NC(=O)C(C)(C)NC(=O)[C@H]([C@@H](C)O)NC(=O)[C@H](CC(N)=O)NC1=O)NC(=O)[C@H](CC(C)(C)C)NC(=O)[C@H](CC(=O)O)NC2=O (stereo partly drawn) [I-2477, Ac-PL3-Asp-Npg-B5-Asn-Thr-Aib-Ala-Phe-Asn-PyrS2-3Thi-BztA-Lys-NH2] was run?
The IC50 was greater than 20000 nM.

What about the IC50 [2] of the same molecule?
The IC50 was 165 nM.

Which results are given for C#CC(=O)N1CCC[C@]12CC=CCCCC1(CCCC=CCCCOC(=O)N3CC[C@@](C(=O)N[C@@H](Cc4ccsc4)C(=O)N[C@@H](Cc4csc5ccccc45)C(=O)N[C@@H](Cc4c[nH]cn4)C(N)=O)(C3)NC(=O)[C@H](CCC(N)=O)NC(=O)[C@H](Cc3ccccc3)NC(=O)[C@H](C)NC(=O)[C@H](C)NC(=O)[C@H](CC(=O)O)NC(=O)[C@H](CC(=O)O)NC1=O)NC(=O)[C@H](CC(C)(C)C)NC(=O)[C@H](CC(=O)O)NC2=O (stereo partly drawn) [I-2402, PropynOH-PL3-Asp-Npg-B5-Asp-Asp-Ala-Ala-Phe-Gln-PyrS2-3Thi-BztA-His-NH2]?
IC50 ([1]; absolute IC50): > 20000 nM; IC50 [2]: 16 nM

For CC(=O)N1CCC[C@]12CC=CCCCC1(CCCC=CCCCOC(=O)N3CC[C@@](C(=O)N[C@@H](Cc4ccsc4)C(=O)N[C@@H](Cc4csc5ccccc45)C(=O)N[C@@H](CCC(N)=O)C(N)=O)(C3)NC(=O)[C@H](CC(C)C)NC(=O)[C@H](Cc3ccccc3)NC(=O)[C@H](C)NC(=O)[C@H](C)NC(=O)[C@H](CN(CCC(F)(F)F)CC(=O)O)NC(=O)[C@H](CC(=O)O)NC1=O)NC(=O)[C@H](CC(C)(C)C)NC(=O)[C@H](CC(=O)O)NC2=O (stereo partly drawn) [I-1633, Ac-PL3-Asp-Npg-B5-Asp-[Tfp]GA-Ala-Ala-Phe-Leu-PyrS2-3Thi-BztA-Gln-NH2], which IC50 ([1]; absolute IC50) is on record?
Its IC50 is 5200 nM.

What about the IC50 [2] of the same molecule?
Its IC50 is 10 nM.

How did the IC50 ([1]; absolute IC50) turn out when CC(=O)N1CCC[C@]12CC=CCCCC1(CCCC=CCCCOC(=O)N3CC[C@@](C(=O)N[C@@H](Cc4ccsc4)C(=O)N[C@@H](Cc4csc5ccccc45)C(=O)N[C@@H](CCC(N)=O)C(N)=O)(C3)NC(=O)[C@H](CC(C)C)NC(=O)[C@H](Cc3ccccc3)NC(=O)[C@H](C)NC(=O)[C@H](C)NC(=O)[C@H](CC(=O)O)NC(=O)[C@H](CC(=O)O)NC1=O)NC(=O)[C@H]([C@@H](C)O)NC(=O)[C@H](CC(=O)O)NC2=O (stereo partly drawn) [I-1515, Ac-PL3-Asp-Thr-B5-Asp-Asp-Ala-Ala-Phe-Leu-PyrS2-3Thi-BztA-Gln-NH2] was run?
The IC50 was greater than 20000 nM.

And the IC50 [2]?
Its IC50 is 24 nM.
